Measured values from patent US6437143B1, “Thiazolidone-2 derivatives, 4-diketone substituted, method for obtaining them and pharmaceutical compositions containing same” (Merck Patent Gesellschaft mit beschrankter Haftung, priority 1996, dated 2002).
Like-named read-outs stand apart in the source and are kept apart here.

Key:
[1] = system: non-insulin-dependent diabetes induced in rats by Streptozotocin; experiment: Antidiabetic activity by the oral route in the nOSTZ rat model of non-insulin-dependent diabetes; type: in vivo; details: 96 h, nOSTZ diabetic rats; for change in vivo at 20 mg/kg: 20 mg/kg/4d; for change in vivo at 200 mg/kg: 200 mg/kg/4d
Protocol: To determine an antidiabetic activity by the oral route on an experimental model of non-insulin-dependent diabetes induced in rats by Streptozotocin.
The non-insulin-dependent diabetes model is obtained in rats by a neonatal injection (on the day of birth) of Streptozotocin.
The diabetic rats used are 8 weeks old.
The animals are kept, from the day of their birth to the day of the experiment, in an animal house at a regulated temperature of 21 to 22° C., and subjected to a fixed cycle of light (from 7.00 h to 19.00 h) and of darkness (from 19.00 h to 7.00 h). Their diet consisted of a maintenance diet; water and food were provided “ad libitum”, with the exception of the 2 hours of fasting preceding the tests where food is withdrawn.
On the day of the experiment, the rats are treated orally with the test product, and then 90′ later, are anaesthetized with Nembutal. 2 hours after the administration of the product, a 500-μl blood sample is collected from the tail.
The blood is collected over Heparin. All the tubes are placed on ice at the time the samples are collected. These are then centrifuged for 10 minutes at 3000 revolutions/minute to separate the organized elements as rapidly as possible.
The plasma obtained is distributed into 2 aliquots: one for the assay of glycaemia and lactatamia; these assays are carried out immediately the other for the assay of insulinaemia—is stored in the freezer at −20° C. up to the day of the assay They are determined by the glucose oxydase and lactate oxydase technique (Eppendorf Ebio 6666) The plasma insulin is assayed by a radio-immunological method

SMILES	change in vivo at 20 mg/kg ([1]; read-out: % Glycaemia)	change in vivo at 20 mg/kg ([1]; read-out: % Insulinaemia)	change in vivo at 200 mg/kg ([1]; read-out: % Glycaemia)	change in vivo at 200 mg/kg ([1]; read-out: % Insulinaemia)	melting point
O=C1NC(=O)C(CCOc2ccc3ccccc3c2)S1 (centres unmarked) [Compound 15]	-14%	-9%	-22%	-12%	133 °C
O=C1NC(=O)C(CCOc2ccccc2F)S1 (centres unmarked) [Compound 14]	-4%	-23%	-7%	-51%	138 °C
O=C1NC(=O)C(CCCCCCOc2ccc(Cl)cc2)S1 (centres unmarked) [Compound 9]	10%	-15%	-16%	-30%	68 to 70 °C
COCCc1ccc(OCCC2SC(=O)NC2=O)cc1 (centres unmarked) [Compound 20]	-10%	–	-14%	–	101 to 103 °C
O=C1NC(=O)C(CC2COc3ccccc3O2)S1 (centres unmarked) [Compound 7]	1%	6%	-10%	-47%	145 °C
O=C1NC(=O)C(C(O)COc2ccc(F)cc2)S1 (centres unmarked) [Compound 16, 5-{[1-hydroxy-2-(4-fluorophenoxy)]ethyl}-2,4-thiazolidinedione]	-6%	-12%	-22%	0%	131 to 133 °C
O=C1NC(=O)C(C(COc2ccc(F)cc2)c2ccccc2)S1 (centres unmarked) [Compound 12]	-6%	-35%	-6%	-56%	121 °C
O=C1NC(=O)C(CCCOc2ccc(F)cc2)S1 (centres unmarked) [Compound 3, 5-[3-(4-fluorophenoxy)propyl]-2,4-thiazolidinedione]	-17%	1%	-17%	-37%	121 to 123 °C
O=C1NC(=O)C(CCOc2ccccc2)S1 (centres unmarked) [Compound 1, 5-(2-phenoxyethyl)-2,4-thiazolidinedione]	-15%	–	-26%	–	–
Cc1ccc(C)c(OCCC2SC(=O)NC2=O)c1 (centres unmarked) [Compound 18]	-8%	-4%	-9%	-17%	–
O=C1NC(=O)C(CCOc2cccc3ccccc23)S1 (centres unmarked) [Compound 11]	-12%	-31%	-21%	-23%	185 to 187 °C
CC(COc1ccccc1)C1SC(=O)NC1=O (centres unmarked) [Compound 19, 5-[1-methyl-2-phenoxyethyl]-2,4-thiazolidinedione]	-6%	2%	-20%	-10%	106 to 108 °C
O=C1NC(=O)C(CCOc2ccc(C(=O)O)cc2)S1 (centres unmarked) [Compound 21]	-1%	–	-9%	–	234 to 236 °C
Cc1ccc(C)c(OCCC2SC(=O)NC2=O)c1 (centres unmarked) (hydrate or solvate) [Compound 18]	–	–	–	–	134 to 136 °C
O=C1NC(=O)C(CCOc2ccc(Cl)cc2)S1 (centres unmarked) [Compound 4]	-3%	-35%	-17%	-33%	116 to 118 °C
O=C1NC(=O)C(CCCCCOc2ccc(F)cc2)S1 (centres unmarked) [Compound 10]	-1%	-12%	-9%	-48%	98 to 100 °C
O=C1NC(=O)C(CCOc2ccc(F)cc2)S1 (centres unmarked) [Compound 2, 5-[2-(4-fluorophenoxy)ethyl]-2,4-thiazolidinedione]	-2%	-1%	-19%	-27%	94 to 96 °C
N#Cc1ccc(OCCC2SC(=O)NC2=O)cc1 (centres unmarked) [Compound 6, 5-[2-(4-cyanophenoxy)ethyl]-2,4-thiazolidinedione]	-20%	0%	-26%	-49%	–
O=C1NC(=O)C(CCOc2ccc(Br)cc2)S1 (centres unmarked) [Compound 5]	-10%	-9%	-23%	-62%	104 to 106 °C
O=C1NC(=O)C(CC(O)COc2ccc(F)cc2)S1 (centres unmarked) [Compound 17, 5-{[2-hydroxy-3-(4-fluorophenoxy)]propyl}-2,4-thiazolidinedione]	-20%	4%	-7%	-5%	96 to 98 °C
O=C1NC(=O)C(CCOc2cccc(F)c2)S1 (centres unmarked) [Compound 13]	-14%	–	-2%	–	87 °C
Cc1ccc(OCCC2SC(=O)NC2=O)cc1 (centres unmarked) [Compound 8]	-3%	-30%	-9%	-26%	119 to 121 °C
